Assay results as given in patent publication US10689377B2 (Mirati Therapeutics, Inc., priority 2017, dated 2020).

Columns and labels:
[1] = target: KRas G12C (Homo sapiens, UniProt P01116, C118S/C51S/C80L/G12C); test: KRas G12C Modification Assay (LCMS detection of covalent adduct); type: binding
Method in brief: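 Intact protein analysed by LC/MS with deconvolution; unmodified protein signal normalized to no-compound control and reported as percent of control (POC).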

[2] = target: KRas G12C (Homo sapiens, UniProt P01116, G12C); test: Cellular inhibition of KRas G12C measured by Phospho-ERK in NCI-H358 cells; type: cell-based; details: pERK(Thr202/Tyr204) normalized with GAPDH, NCI-H358 cells, 3 hours; read-out: IC50
Method in brief: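 Readout is pERK(Thr202/Tyr204) immunofluorescence normalized to GAPDH, expressed as percent of DMSO control and fitted with a 4-parameter curve for IC50. Attached NCI-H358 cells received compound for 3 hours in 0.5% DMSO, followed by fixation and methanol permeabilization.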

[3] = normalized percent of control, 5 μM concentration for 3 hours

| POC [1, 3] | SMILES | IC50 [2] [nM] | POC ([1]; 5 µM) |
| --- | --- | --- | --- |
| C (“C”>50% POC) | C=C(F)C(=O)N1CCN(c2nc(OCCCN3C[C@@H]4C[C@H]3CO4)nc3c2CCN(c2cccc4cccc(Cl)c24)C3)C[C@@H]1CC#N [Example 564, 2-[(2S)-4-[7-(8-Chloro-1-naphthyl)-2-[3-[(1S,4S)-2-oxa-5-azabicyclo[2.2.1]heptan-5-yl]propoxy]-6,8-dihydro-5H-pyrido[3,4-d]pyrimidin-4-yl]-1-(2-fluoroprop-2-enoyl)piperazin-2-yl]acetonitrile] | 0.1 to 1000 |  |
| C (“C”>50% POC) | CO[C@@H]1C[C@@H](COc2nc3c(c(N4CCN(C(=O)/C=C/CF)[C@@H](CC#N)C4)n2)CCN(c2cccc4cccc(Cl)c24)C3)N(C)C1 [Example 583, 2-[(2S)-4-[7-(8-chloro-1-naphthyl)-2-[[(2S,4R)-4-methoxy-1-methyl-pyrrolidin-2-yl]methoxy]-6,8-dihydro-5H-pyrido[3,4-d]pyrimidin-4-yl]-1-[(E)-4-fluorobut-2-enoyl]piperazin-2-yl]acetonitrile] | 0.1 to 1000 |  |
| B (“B”>25% POC-≤50% POC) | C=C(F)C(=O)N1CCN(c2nc(OC[C@@H]3CCCN3C)nc3c2CCN(c2cccc4cccc(C(C)C)c24)C3)C[C@@H]1CC#N [Example 591] | > 1000 |  |
| C (“C”>50% POC) | C=C(F)C(=O)N1CCN(c2nc(OC[C@@H]3CCCN3C)nc3c2CCN(c2cccc4cccc(C(F)(F)F)c24)C3)C[C@@H]1CC#N [Example 589, 2-((S)-1-(2-Fluoroacryloyl)-4-(2-(((S)-1-methylpyrrolidin-2-yl)methoxy)-7-(8-(trifluoromethyl)naphthalen-1-yl)-5,6,7,8-tetrahydropyrido[3,4-d]pyrimidin-4-yl)piperazin-2-yl)acetonitrile] | 0.1 to 1000 |  |
| C (“C”>50% POC) | Cc1cccc(N2CCc3c(nc(OC[C@@H]4CCCN4C)nc3N3CCN(C(=O)C4=CCC4)[C@@H](CC#N)C3)C2)c1C [Example 392, 2-((S)-1-(cyclobut-1-ene-1-carbonyl)-4-(7-(2,3-dimethylphenyl)-2-(((S)-1-methylpyrrolidin-2-yl)methoxy)-5,6,7,8-tetrahydropyrido[3,4-d]pyrimidin-4-yl)piperazin-2-yl)acetonitrile] | > 1000 |  |
| C (“C”>50% POC) | C=C(F)C(=O)N1CCN(c2nc(OC[C@@H]3C[C@@H](F)CN3C)nc3c2CCN(c2cccc4cccc(C)c24)C3)C[C@@H]1CC#N [Example 560, 2-[(2S)-4-[2-[[(2S,4R)-4-Fluoro-1-methyl-pyrrolidin-2-yl]methoxy]-7-(8-methyl-1-naphthyl)-6,8-dihydro-5H-pyrido[3,4-d]pyrimidin-4-yl]-1-(2-fluoroprop-2-enoyl)piperazin-2-yl]acetonitrile] | 0.1 to 1000 |  |
| C (“C”>50% POC) | COC/C=C/C(=O)N1CCN(c2nc(OC[C@H]3CCCN3C)nc3c2CCN(c2cccc4cccc(C)c24)C3)C[C@@H]1CC#N [Example 554, 2-[(2S)-1-[(E)-4-Methoxybut-2-enoyl]-4-[7-(8-methyl-1-naphthyl)-2-[[(2R)-1-methylpyrrolidin-2-yl]methoxy]-6,8-dihydro-5H-pyrido[3,4-d]pyrimidin-4-yl]piperazin-2-yl] acetonitrile] | 0.1 to 1000 |  |
| C (“C”>50% POC) | CN1C[C@H](F)C[C@H]1COc1nc2c(c(N3CCN(C(=O)/C=C/CF)[C@@H](CC#N)C3)n1)CCN(c1cccc3cccc(Cl)c13)C2 [Example 582, 2-((S)-4-(7-(8-Chloronaphthalen-1-yl)-2-(((2S,4R)-4-fluoro-1-methylpyrrolidin-2-yl)methoxy)-5,6,7,8-tetrahydropyrido[3,4-d]pyrimidin-4-yl)-1-((E)-4-fluorobut-2-enoyl)piperazin-2-yl)acetonitrile] | 0.1 to 1000 |  |
|  | C=CC(=O)N1CCN(c2nc(OC[C@@H]3CCCN3C)nc3c2CCN(c2c(C(C)C)ccc4[nH]ncc24)C3)CC1 [Example 248, (S)-1-(4-(7-(5-isopropyl-1H-indazol-4-yl)-2-((1-methylpyrrolidin-2-yl)methoxy)-5,6,7,8-tetrahydropyrido[3,4-d]pyrimidin-4-yl)piperazin-1-yl)prop-2-en-1-one] | > 1000 | C (key: “A”≤25% POC; “B”>25% POC-≤50% POC; “C”>50% POC) |
| C (“C”>50% POC) | C=C(F)C(=O)N1CCN(c2nc(OC[C@@H]3CCCN3C)nc3c2CCN(c2cccc4cccc(Br)c24)C3)C[C@@H]1CC#N [Example 588, 2-((S)-4-(7-(8-Bromonaphthalen-1-yl)-2-(((S)-1-methylpyrrolidin-2-yl)methoxy)-5,6,7,8-tetrahydropyrido[3,4-d]pyrimidin-4-yl)-1-(2-fluoroacryloyl)piperazin-2-yl)acetonitrile] | 0.1 to 1000 |  |
|  | C=CC(=O)N1CCN(c2nc(OC[C@@H]3CCCN3C)nc3c2CCN(c2c(C)ccc4[nH]ncc24)C3)CC1 [Example 155, (S)-1-(4-(7-(5-methyl-1H-indazol-4-yl)-2-((1-methylpyrrolidin-2-yl)methoxy)-5,6,7,8-tetrahydropyrido[3,4-d]pyrimidin-4-yl)piperazin-1-yl)prop-2-en-1-one] | 0.1 to 1000 | C (key: “A”≤25% POC; “B”>25% POC-≤50% POC; “C”>50% POC) |
|  | C=CC(=O)N1CCN(c2nc(OCCCN3CCOCC3)nc3c2CCN(c2cc(O)cc4sc(C)nc24)C3)CC1 [Example 166, 1-[4-[7-(6-hydroxy-2-methyl-1,3-benzothiazol-4-yl)-2-(3-morpholinopropoxy)-6,8-dihydro-5H-pyrido[3,4-d]pyrimidin-4-yl]piperazin-1-yl]prop-2-en-1-one] | > 1000 | B (key: “A”≤25% POC; “B”>25% POC-≤50% POC; “C”>50% POC) |
| C (“C”>50% POC) | N#CC[C@H]1CN(c2nc(OCCCN3C[C@@H]4C[C@H]3CO4)nc3c2CCN(c2cccc4cccc(Cl)c24)C3)CCN1C(=O)/C=C/CF [Example 585, 2-((S)-4-(2-(3-((1S,4S)-2-oxa-5-azabicyclo[2.2.1]heptan-5-yl)propoxy)-7-(8-chloronaphthalen-1-yl)-5,6,7,8-tetrahydropyrido[3,4-d]pyrimidin-4-yl)-1-((E)-4-fluorobut-2-enoyl)piperazin-2-yl)acetonitrile] | 0.1 to 1000 |  |

| SMILES | POC [1, 3] | IC50 [2] [nM] | POC ([1]; 5 µM) |
| --- | --- | --- | --- |
| C=CC(=O)N1CCN(c2nc(OC[C@@H]3CCN(C)C3)nc3c2CCN(c2cccc4ccccc24)C3)CC1CC#N (stereo partly drawn) [Example 177, 2-[4-[2-[[(3R)-1-methylpyrrolidin-3-yl]methoxy]-7-(1-naphthyl)-6,8-dihydro-5H-pyrido[3,4-d]pyrimidin-4-yl]-1-prop-2-enoyl-piperazin-2-yl]acetonitrile] | C (“C”>50% POC) | 0.1 to 1000 |  |
| C=CC(=O)N1CCN(c2nc(OC[C@@H]3CCCN3C)nc3c2CCN(c2c(C)c(O)cc4ccccc24)C3)CC1 [Example 175, (S)-1-(4-(7-(3-hydroxy-2-methylnaphthalen-1-yl)-2-((1-methylpyrrolidin-2-yl)methoxy)-5,6,7,8-tetrahydropyrido[3,4-d]pyrimidin-4-yl)piperazin-1-yl)prop-2-en-1-one] | C (“C”>50% POC) | 0.1 to 1000 |  |
| C=CC(=O)N1CCN(c2nc(OCCCN3CCOCC3)nc3c2CCN(c2c(C(F)(F)F)ccc4[nH]ncc24)C3)CC1 [Example 180, 1-[4-[2-(3-morpholinopropoxy)-7-[5-(trifluoromethyl)-1H-indazol-4-yl]-6,8-dihydro-5H-pyrido[3,4-d]pyrimidin-4-yl]piperazin-1-yl]prop-2-en-1-one] | C (“C”>50% POC) | 0.1 to 1000 |  |
| [2H]C([2H])=C([2H])C(=O)N1CCN(c2nc(OC[C@@H]3CCCN3C)nc3c2CCN(c2cccc4ccccc24)C3)C[C@@H]1CC#N [Example 475, 2-[(2S)-4-[2-[[(2S)-1-methylpyrrolidin-2-yl]methoxy]-7-(1-naphthyl)-6,8-dihydro-5H-pyrido[3,4-d]pyrimidin-4-yl]-1-(2,3,3-trideuterioprop-2-enoyl)piperazin-2-yl]acetonitrile] | C (“C”>50% POC) | 0.1 to 1000 |  |
| C=CC(=O)N1CCN(c2nc(OCCCN3CCOCC3)nc3c2CCN(c2cc(O)cc4cccnc24)C3)CC1 [Example 205, 1-(4-(7-(6-hydroxyquinolin-8-yl)-2-(3-morpholinopropoxy)-5,6,7,8-tetrahydropyrido[3,4-d]pyrimidin-4-yl)piperazin-1-yl)prop-2-en-1-one] | C (“C”>50% POC) | > 1000 |  |
| C=CC(=O)N1CCN(c2nc(OCCCO)nc3c2CCN(c2cccc4ccccc24)C3)CC1CC#N (stereo not drawn) [Example 231, 2-(1-acryloyl-4-(2-(3-hydroxypropoxy)-7-(naphthalen-1-yl)-5,6,7,8-tetrahydropyrido[3,4-d]pyrimidin-4-yl)piperazin-2-yl)acetonitrile] | C (“C”>50% POC) | 0.1 to 1000 |  |
| C=CC(=O)N1CCN(c2nc(OC[C@@H]3CCCN3C)nc3c2CCN(c2cccc4ccccc24)C3)C[C@@H]1CC#N [Example 234, 2-((S)-1-acryloyl-4-(2-(((S)-1-methylpyrrolidin-2-yl)methoxy)-7-(naphthalen-1-yl)-5,6,7,8-tetrahydropyrido[3,4-d]pyrimidin-4-yl)piperazin-2-yl)acetonitrile] | C (“C”>50% POC) | 0.1 to 1000 |  |
| C=CC(=O)N1CCN(c2nc(OCCN3CCC[C@@H](F)C3)nc3c2CCN(c2cc(O)cc4ccccc24)C3)CC1 [Example 207, (R)-1-(4-(2-(2-(3-fluoropiperidin-1-yl)ethoxy)-7-(3-hydroxynaphthalen-1-yl)-5,6,7,8-tetrahydropyrido[3,4-d]pyrimidin-4-yl)piperazin-1-yl)prop-2-en-1-one] | C (“C”>50% POC) | > 1000 |  |
